The record followed here is US20100152188A1, “Novel Heterocyclic Compounds” (priority 2005, published 2010).

For one assay, the system named is NCIH460. Nature of the assay: Anti-cancer screen (MTT), NCIH460. The format is cell-based. To be noted: Homo sapiens, NCI-H460, 48 hours with compound, tested at 0.01-100 µM. How it is done: (§1) Experimental drugs are screened for anti-cancer activity in three cell lines for their GI50, TGI and LC50 values (using five concentrations for each compound). The cell lines are maintained in DMEM containing 10% fetal bovine serum. 96 well micro titer plates are inoculated with cells in 100 µL for 24 hours at 37° C., 5% CO2, 95% air and 100% relative humidity. 5000 HCT 116 cells/well, 5000 NCIH 460 cells/well and 5000 U251 cells/well are plated. A separate plate with these cell lines is also inoculated to determine cell viability before the addition of the compounds (T0).
(§2) Following 24-hour incubation, experimental drugs are added to the 96 well plates. Each plate contains one of the above cell lines and the following in triplicate: five different concentrations (0.01, 0.1, 1, 10 and 100 µM) of four different compounds, appropriate dilutions of a cytotoxic standard and control (untreated) wells. Compounds are dissolved in DMSO to make 20 mM stock solutions on the day of drug addition and frozen at −20° C. Serial dilutions of these 20 mM stock solutions are made in complete growth medium such that 100 µL of these drug solutions in medium, of final concentrations equaling 0.01, 0.1, 1, 10 and 100 µM can be added to the cells in triplicate. Standard drugs whose anti-cancer activity has been well documented and which are regularly used are doxorubicin and SAHA.
(§3) For T0 measurement, 24 hours after seeding the cells, 10 µL of 3-(4,5-Dimethyl-2-thiazolyl)-2,5-diphenyl-2H-tetrazolium (MTT) solution per well is added and incubation carried out for 3 hours at 37° C., 5% CO2, 95% air and 100% relative humidity, protected from light. Cells incubated with compounds for 48 hours are treated similarly except with the addition of 20 µl MTT solution per well and a subsequent incubation under the same conditions. After 3 hours of MTT incubation, well contents are aspirated carefully followed by addition of 150 µL DMSO per well. Plates are agitated to ensure solution of the formazan crystals in DMSO and absorbance read at 570 nm.
(§4) Percent growth is calculated for each compound's concentration relative to the control and zero measurement wells (T0; viability right before compound addition). If a test well's O.D. value is greater than the T0 measurement for that cell line
(§5) %Growth=(test−zero)/(control−zero)×100
(§6) If a test well's O.D. value is lower than the T0 measurement for that cell line, then,
(§7) %Growth=(test−zero)/zero×100

For the next assay, the system named is HCT116. Description: Anti-cancer screen (MTT), HCT116. The format is cell-based. To be noted: Homo sapiens, HCT-116, 48 hours with compound, tested at 0.01-100 µM. As to the method: as §1, §2, §3, §4, §5, §6, §7
The next assay relates to MDAMB-231/U 251. Description: Anti-cancer screen (MTT), MDAMB-231/U 251. It is filed as cell-based. To be noted: for CC50: 48 h, read-out: MDAMB-231/U 251 LC50; for GI50 / IC (TGI): 48 hours with compound, MTT, tested at 0.01-100 µM. How it is done: as §1, §2, §3, §4, §5, §6, §7
The test system of assay [1] is NCIH460, HCT116, MDAMB-231/U 251. Nature of the assay: Anti-cancer screen, mean GI50 over the cell lines. The format is cell-based. The following applies: in µM. How it is done:
as §1, §2, §3, §4

For the next assay, the system named is HDAC. Description: HDAC inhibition. To be noted: for HDAC Inhibition 1 μM: compound at 1 μM; for HDAC Inhibition 10 μM: compound at 10 μM. The format is biochemical.

With `O=C(Cc1csc(NC(=O)OCc2cccnc2)n1)NO` [Example 1, pyridin-3-ylmethyl{4-[2-(hydroxyamino)-2-oxoethyl]-1,3-thiazol-2-yl}carbamate], in the assay with NCIH460, the GI50 is 0.01 µM, the IC (TGI) was 0.5 µM and the LC50 is over 100 µM. In the assay on HCT116, the GI50 worked out at 0.25 µM, the IC (TGI) was found to be 4 µM and the LC50 (concentration giving 50% net cell kill relative to T0) is over 100 µM. Further, in the assay on MDAMB-231/U 251, the CC50 was over 100 µM, the GI50 turned out to be 1 µM and the IC (TGI) was over 100 µM. Besides, the “Mean GI50” value in assay [1] is reported as 0.4. In the assay with HDAC, the “HDAC Inhibition 1 μM” value is given as 1.3 and the “HDAC Inhibition 10 μM” value was found to be 31.5.

For `O=C(Cc1csc(NC(=O)OCc2cccs2)n1)NO` [Example 2, 2-Thienylmethyl{4-[2-(hydroxyamino)-2-oxoethyl]-1,3-thiazol-2-yl}carbamate], in the assay on NCIH460, the GI50 is over 100 µM, the IC (TGI) is over 100 µM and the LC50 is over 100 µM. Moreover, in the assay with HCT116, the GI50 is over 100 µM, the IC (TGI) was over 100 µM and the LC50 (concentration giving 50% net cell kill relative to T0) is over 100 µM. Besides, in the assay on MDAMB-231/U 251, the CC50 is over 100 µM, the GI50 was over 100 µM and the IC (TGI) is over 100 µM. Further, in assay [1], the “Mean GI50” value is over 100. Further, in the assay on HDAC, the “HDAC Inhibition 1 μM” value is reported as 0.8 and the “HDAC Inhibition 10 μM” value amounted to 22.42.

With `O=C(Cc1csc(NC(=O)OCc2ccsc2)n1)NO` [Example 3, 3-Thienylmethyl{4-[2-(hydroxyamino)-2-oxoethyl]-1,3-thiazol-2-yl}carbamate], in the assay with NCIH460, the GI50 came out at 30 µM, the IC (TGI) was over 100 µM and the LC50 is over 100 µM. Moreover, in the assay on HCT116, the GI50 is over 100 µM, the IC (TGI) is over 100 µM and the LC50 (concentration giving 50% net cell kill relative to T0) was over 100 µM. Moreover, in the assay on MDAMB-231/U 251, the CC50 was over 100 µM, the GI50 was 32 µM and the IC (TGI) is over 100 µM. Further, in assay [1], the “Mean GI50” value was 31. In addition, in the assay on HDAC, the “HDAC Inhibition 1 μM” value was −4.03 and the “HDAC Inhibition 10 μM” value was determined as 22.89.

Consider `O=C(Cc1csc(NC(=O)OCc2ccncc2)n1)NO` [Example 4, Pyridin-4-ylmethyl{4-[2-(hydroxyamino)-2-oxoethyl]-1,3-thiazol-2-4.yl}carbamate], for which, in the assay with NCIH460, the GI50 turned out to be 20 µM, the IC (TGI) is over 100 µM and the LC50 is over 100 µM. Besides, in the assay on HCT116, the GI50 was over 100 µM, the IC (TGI) was over 100 µM and the LC50 (concentration giving 50% net cell kill relative to T0) is over 100 µM. Moreover, in the assay with MDAMB-231/U 251, the CC50 is over 100 µM, the GI50 came out at 6 µM and the IC (TGI) was over 100 µM. For the same compound, in assay [1], the “Mean GI50” value turned out to be 13. Also, in the assay with HDAC, the “HDAC Inhibition 1 μM” value was 5.6 and the “HDAC Inhibition 10 μM” value is listed as 38.13.

For the compound `O=C(Cc1csc(NC(=O)OCC2COc3ccccc3O2)n1)NO` (centres unmarked) [Example 5, 2,3-Dihydro-1,4-benzodioxin-2-ylmethyl{4-[2-(hydroxyamino)-2-oxoethyl]1,3-thiazol-2-yl}carbamate], in the assay with NCIH460, the GI50 was 18 µM, the IC (TGI) stood at 76 µM and the LC50 was over 100 µM. Besides, in the assay with HCT116, the GI50 turned out to be 40 µM, the IC (TGI) turned out to be 80 µM and the LC50 (concentration giving 50% net cell kill relative to T0) was over 100 µM. For the same compound, in the assay on MDAMB-231/U 251, the CC50 was over 100 µM, the GI50 was determined as 6 µM and the IC (TGI) was 78 µM. For the same compound, the “Mean GI50” value in assay [1] is 21.3. Also, in the assay on HDAC, the “HDAC Inhibition 1 μM” value is on record as 0.65 and the “HDAC Inhibition 10 μM” value was 29.29.

With `O=C(NCc1ccc(C(=O)Nc2ncc([N+](=O)[O-])s2)cc1)OCc1cccs1` [Example 69, 2-thienylmethyl(4-{[(5-nitro-1,3-thiazol-2yl)amino]carbonyl}benzyl)carbamate], the “Mean GI50” value in assay [1] came to 40.33. In the assay on HDAC, the “HDAC Inhibition 1 μM” value came to 13.14 and the “HDAC Inhibition 10 μM” value was 12.38.

`O=C(NCc1ccc(C(=O)NOCc2ccccc2)cc1)OCc1cccs1` [Example 73, 2-Thienylmethyl(4-{[(benzyloxy)amino]carbonyl}benzyl)carbamate]: the “Mean GI50” value in assay [1] is recorded as over 100. In the assay on HDAC, the “HDAC Inhibition 1 μM” value stood at 6.60 and the “HDAC Inhibition 10 μM” value is 12.42.

Take `COC(=O)ON(C)C(=O)c1ccc(CNC(=O)OCc2cccs2)cc1` [Example 85, 2-Thienylmethyl[4-({[(methoxycarbonyl)oxy](methyl)amino}carbonyl)benzyl]carbamate]: the “Mean GI50” value in assay [1] stood at 10.67. Besides, in the assay on HDAC, the “HDAC Inhibition 1 μM” value came to 3.18 and the “HDAC Inhibition 10 μM” value worked out at 7.89.

`COC(=O)N(OCc1ccccc1)C(=O)c1ccc(CNC(=O)OCc2cccs2)cc1` [Example 86, 2-Thienylmethyl[4-({(N-benzyloxy)(N-methoxycarbonyl)amino}carbonyl)benzyl]carbamate]: in assay [1], the “Mean GI50” value was over 100. For the same compound, in the assay on HDAC, the “HDAC Inhibition 1 μM” value was 5.98 and the “HDAC Inhibition 10 μM” value was −10.22.

On to `O=C(CCCCCNC(=O)Cc1csc(NC(=O)OCc2c(F)c(F)c(F)c(F)c2F)n1)NO` [Example 94, Pentafluorobenzyl[4-(2-{[6-(hydroxyamino)-6-oxohexyl]amino}-2-oxoethyl)-1,3-thiazol-2-yl]carbamate], for which, in the assay on NCIH460, the GI50 is 35 µM, the IC (TGI) was 67 µM and the LC50 is over 100 µM. Moreover, in the assay on HCT116, the GI50 is 23 µM, the IC (TGI) was found to be 62 µM and the LC50 (concentration giving 50% net cell kill relative to T0) stood at 84 µM. In the assay on MDAMB-231/U 251, the CC50 came out at 84 µM, the GI50 was found to be 19 µM and the IC (TGI) came to 50 µM. Further, the “Mean GI50” value in assay [1] worked out at 25.66.

As to `O=C(CCCCCNC(=O)Cc1csc(NC(=O)OCc2ccncc2)n1)NO` [Example 98, Pyridin-4-ylmethyl[4-(2-{[6-(hydroxyamino)-6-oxohexyl]amino}-2-oxoethyl)-1,3-thiazol-2-yl]carbamate], the “Mean GI50” value in assay [1] is over 100. Also, in the assay on HDAC, the “HDAC Inhibition 1 μM” value came out at 94.01 and the “HDAC Inhibition 10 μM” value was found to be 129.59.

Take `O=C(CCCCCNC(=O)c1ccc(CNC(=O)OCc2cccs2)cc1)Nc1nnc(C2CC2)s1` [Example 103]: in the assay with NCIH460, the GI50 is 60 µM, the IC (TGI) was over 100 µM and the LC50 was over 100 µM. Moreover, in the assay on HCT116, the GI50 turned out to be 40 µM, the IC (TGI) is over 100 µM and the LC50 (concentration giving 50% net cell kill relative to T0) was over 100 µM. In the assay with MDAMB-231/U 251, the CC50 worked out at 85 µM, the GI50 amounted to 0.4 µM and the IC (TGI) came to 18 µM. Also, the “Mean GI50” value in assay [1] was 33.5.

On to `N#Cc1ccc(NC(=O)Nc2cccc(NC(=O)c3ccc(CNC(=O)OCc4cccs4)cc3)c2)cc1` [Example 105, 2-Thienylmethyl[4-({[3-({[(4-cyanophenyl)amino]carbonyl}amino)phenyl]amino}carbonyl)benzyl]carbamate], for which the “Mean GI50” value in assay [1] is reported as 6.73. In the assay with HDAC, the “HDAC Inhibition 1 μM” value is reported as 11.02 and the “HDAC Inhibition 10 μM” value was 12.74.
